Experiments:
[1] = tested on: human liver microsomal preparations (cytochrome P450 enzyme preparations); assay: Trapping of "soft" and "hard" reactive metabolites in microsomal incubations with compound of formula (I), neutral loss LC-MS/MS; assay type: in vitro ADME; settings: 50 μM test compound, 2 mg/ml microsomal proteins, 3 mM NADPH, 37° C.; for adducts of reactive metabolites with ECHK detected: trapping agent ECHK 1 mM; for adducts of reactive metabolites with ECHK detected / adducts of reactive metabolites with EHCK detected: neutral loss scanning of 129 Da; for adducts of reactive metabolites with ECO detected: trapping agent ECO 1 mM, neutral loss scanning of 129 Da or 147 Da; for adducts of reactive metabolites with EHCK detected: trapping agent EHCK 1 mM
Method: All microsomal incubations described herein were performed at 37° C. in a water bath or on a heat block. The test compound was mixed with human liver microsomal preparations (cytochrome P450 enzyme preparations) in 100 mM potassium phosphate buffer (pH7.4) including 0.1 mM EDTA and the compound of formula (I). The resulting mixtures were pre-warmed at 37° C. for 5 min. To the reaction mixtures was then added the co-factor-NADPH (to initiate the reaction) to yield a final volume of 500 μl.
The resulting reaction mixtures contained 50 μM test compounds, 2 mg/ml microsomal proteins, 1 mM mixture of compound of formula (I) and 3 mM NADPH.
After 15 or 60 min incubation, the reactions were terminated by the addition of 1000 μl of 50% methanol/50% acetonitrile. The resulting mixtures were centrifuged at 10,000 g for 10 min at 4° C. to pellet the precipitated protein, and the supernatants were dried up. The resulting residue was solubilized with 50% methanol.
(§1) MS analyses were performed on an LTQ Orbitrap FTMS (Thermo Fisher Scientific, Inc., Bremen, Germany). The ESI ion source was operated in the positive ion mode. The entire eluent was sprayed into the mass spectrometer at +5 kV and desolvation of the solvent droplets was further aided by a heated capillary temperature of 350° C. Mass spectra collected in the neutral loss scanning mode were obtained by scanning over the range m/z 200-1100 at 30000 resolution.
For complete profiling of reactive metabolites, samples were first subjected to chromatographic separations with a Prominence LC system with an auto-sampler (Shimadzu Corp., Kyoto, Japan) and eluents were introduced to the LTQ Orbitrap FTMS operated in the neutral loss scanning mode. An L-column ODS (Octadecylsilyl-silica gels; 2.1×150 mm, Chemicals Evaluation and Research Institute, Tokyo, Japan) was used for the chromatographic separation. The chromatographic system used a binary solvent system delivered as a gradient of solvent A (5 mM ammonium acetate) and solvent B (95% acetonitrile included 5 mM ammonium acetate). […] The solvent composition was then held at 100% B for 8 min before re-equilibration at initial conditions. LC-MS/MS analyses were carried out on 20 μl aliquots of cleaned samples. Data acquisition was carried out using the Xcaliber version 2.0 software (Thermo Fisher Scientific, Inc., Bremen, Germany).

[2] = Trapping of acylglucuronides by incubation with compound of formula (I) in buffer, neutral loss LC-MS/MS; settings: 100 μM diclofenac acylglucuronide, pH7.4 buffer, 60 min, 37° C.
Method: The resulting mixtures were pre-warmed at 37° C. for 5 min.
as §1
For complete profiling of reactive metabolites, samples were first subjected to chromatographic separations with a Prominence LC system with an auto-sampler (Shimadzu Corp., Kyoto, Japan) and eluents were introduced to the LTQ Orbitrap FTMS operated in the neutral loss scanning mode. […] The solvent composition was then held at 100% B for 8 min before re-equilibration at initial conditions. […] Data acquisition was carried out using the Xcaliber version 2.0 software (Thermo Fisher Scientific, Inc., Bremen, Germany).

Row | adducts of reactive metabolites with ECHK detected [1] | adducts of reactive metabolites with ECO detected [1] | adducts of reactive metabolites with EHCK detected [1] | SMILES | adduct of acylglucuronide with ECHK detected ([2]; trapping agent ECHK 1 mM, neutral loss scanning of 129 Da) | adduct of acylglucuronide with ECO detected ([2]; trapping agent ECO 1 mM, neutral loss scanning of 129 Da and 147 Da) | adduct of acylglucuronide with EHCK detected ([2]; trapping agent EHCK 1 mM, neutral loss scanning of 129 Da)
1 | three adducts | three adducts | three adducts | c1coc(-c2cccs2)c1 [2-[2-thienyl]-furan, 2-[2-Thienyl]-furan] |  |  | 
2 |  |  |  | O=C(Cc1ccccc1Nc1c(Cl)cccc1Cl)O[C@@H]1O[C@H](C(=O)O)[C@@H](O)[C@H](O)[C@H]1O [diclofenac acylglucuronide, Diclofenac acylglucuronide] | adduct of diclofenac acylglucuronide with ECHK which was detected | adduct of diclofenac acylglucuronide with ECO which was detected | adduct of diclofenac acylglucuronide with EHCK which was detected
3 | two adducts | two adducts | two adducts | O=C(O)Cc1ccccc1Nc1c(Cl)cccc1Cl [diclofenac, Diclofenac] |  |  | 

Source: US20120028284A1, “TRAPPING COMPOUNDS AND METHOD FOR IDENTIFYING REACTIVE METABOLITES” (EISAI R&D MANAGEMENT CO., LTD., priority 2009, published 2012)
